# Measurements taken from patent US20100016232A1, “Treatment Of Inflammatory Diseases With Mammal Beta Defensins” (Novozymes A/S, priority 2008, published 2010).
# Where no end group is shown, it is not given here.
# Columns and labels:
# [1] = system: PBMC; test: PBMC viability, Alamar Blue; format: cell-based, human; conditions: human PBMC, Example 2
# Experimental: (§1) Peripheral blood was drawn from healthy volunteers (with approval from the relevant ethical committee in Denmark). Heparinized blood was diluted 1/1 v/v with RPMI and were subjected to Ficoll density centrifugation within 2 h of drawing. Plasma was collected from the top from individual donors and was kept on ice until it was used at 2% in the culture medium (autologous culture medium). Isolated PBMC were resuspended in autologous culture medium and seeded in 96-well culture plates with 255.000 cells per well in a total of 200 μl. […] The concentrations used for stimulation were optimized on 3 different donors in initial experiments, for LPS two different concentrations were used to be sure to be on a cytokine level that is possible to modulate. In some experiments PBMC were treated with Dexamethason and Indomethacin alone and together with LPS or LTA as a control on downregulation of inflammatory cytokines. The supernatants were collected after incubation at 37° C. for 24 hours, and stored at −80° C. until cytokine measurement. Viability was measured by Alamar Blue (Biosource, DALL 1100) in all experiments and in some cases also by MTS (Promega) according to manufacturer's instruction and was in some experiments also judged by counting of the cells by a Nucleocounter.
# [2] = system: TNF production from human peripheral blood mononuclear cells (PBMC); test: TNF production from human PBMC, Cytometric Bead Array; format: cell-based; conditions: Table 16
# Experimental: as §1
# (§2) Cytokine production in supernatants was measured by flow cytometry with a human inflammation cytometric bead array (CBA) according to manufacturer's instructions (BD) on a FACSarray flow cytometer. The following cytokines were measured: IL-8, IL-1β, IL-10, TNF, IL-12 p70, IL-6. In some experiments, cytokines were measured by ELISA kits from R&D systems (IL-10, TNF-α, IL-1β) according to the manufacturer' instruction.
# [3] = system: IL-1β production from human peripheral blood mononuclear cells (PBMC); test: IL-1β production from human PBMC, Cytometric Bead Array; format: cell-based; conditions: Table 18
# Experimental: as §1, §2
# [4] = system: IL-10 production from human peripheral blood mononuclear cells (PBMC); test: IL-10 production from human PBMC, Cytometric Bead Array; format: cell-based; conditions: Table 17
# Experimental: as §1, §2
# [5] = LPS 0.6 ng/ml, test compound 1 μg/ml
# [6] = LPS 20 ng/ml, test compound 1 μg/ml
# [7] = LPS 0.6 ng/ml, test compound 10 μg/ml
# [8] = LPS 20 ng/ml, test compound 10 μg/ml
# [9] = LPS 0.6 ng/ml, test compound 40 μg/ml
# [10] = LPS 20 ng/ml, test compound 40 μg/ml
substance,measurement,setting,value
"hBD3: human beta defensin 3, SEQ ID NO:3; prepared using chemical synthesis, Peptide Institute Inc. (GIINTLQKYYCRVRGGRCAVLSCLPKEEQTGKCSTRGRKCCRRKK; ends and bridges not checked; cysteine pairing not given here; listed as Homo sapiens)",toxicity to the cells,[1]; 10 μg/ml and 40 μg/ml,toxic to the cells
same,TNF,[2]; [5],528 pg/mL
same,TNF % of control,[2]; [5],73%
same,TNF,[2]; [6],451 pg/mL
same,TNF % of control,[2]; [6],21%
same,TNF,"[2]; Medium, test compound 1 μg/ml",0 pg/mL
same,IL-1β,[3]; [5],331 pg/mL
same,IL-1β % of control,[3]; [5],45%
same,IL-1β,[3]; [6],568 pg/mL
same,IL-1β % of control,[3]; [6],22%
same,IL-1β,"[3]; Medium, test compound 1 μg/ml",0 pg/mL
same,IL-10,[4]; [5],71 pg/mL
same,IL-10 % of control,[4]; [5],107%
same,IL-10 % of control,[4]; [6],137%
same,IL-10,"[4]; Medium, test compound 1 μg/ml",0 pg/mL
"hBD4 variant: consists of amino acids 3-39 of hBD4, SEQ ID NO:5; prepared using chemical synthesis (ELDRICGYGTARCRKKCRSQEYRIGRCPNTYACCLRK; hBD-4 variant consisting of amino acids 3-39 of SEQ ID NO4)",toxicity to the cells,[1]; 40 μg/ml,toxic to the cells
same,TNF,[2]; [5],468 pg/mL
same,TNF % of control,[2]; [5],64%
same,TNF,[2]; [7],211 pg/mL
same,TNF % of control,[2]; [7],29%
same,TNF,[2]; [6],778 pg/mL
same,TNF % of control,[2]; [6],36%
same,TNF,[2]; [8],139 pg/mL
same,TNF % of control,[2]; [8],6%
same,TNF,"[2]; Medium, test compound 1 μg/ml",0 pg/mL
same,TNF,"[2]; Medium, test compound 10 μg/ml",0 pg/mL
same,IL-1β,[3]; [5],286 pg/mL
same,IL-1β % of control,[3]; [5],39%
same,IL-1β,[3]; [7],163 pg/mL
same,IL-1β % of control,[3]; [7],22%
same,IL-1β,[3]; [6],1004 pg/mL
same,IL-1β % of control,[3]; [6],40%
same,IL-1β,[3]; [8],463 pg/mL
same,IL-1β % of control,[3]; [8],18%
same,IL-1β,"[3]; Medium, test compound 1 μg/ml",0 pg/mL
same,IL-1β,"[3]; Medium, test compound 10 μg/ml",0 pg/mL
same,IL-10,[4]; [5],90 pg/mL
same,IL-10 % of control,[4]; [5],136%
same,IL-10,[4]; [7],92 pg/mL
same,IL-10 % of control,[4]; [7],139%
same,IL-10 % of control,[4]; [6],157%
same,IL-10,[4]; [8],187 pg/mL
same,IL-10 % of control,[4]; [8],168%
same,IL-10,"[4]; Medium, test compound 1 μg/ml",0 pg/mL
same,IL-10,"[4]; Medium, test compound 10 μg/ml",0 pg/mL
"rhBD2: recombinant hBD2, which is identical to hBD2 as used in Example 1 (GIGDPVTCLKSGAICHPVFCPRRYKQIGTCGLPGTKCCKKP; not fully specified; ends and bridges not checked; UniProt O15263 24-64, looked up)",TNF,[2]; [5],196 pg/mL
same,TNF % of control,[2]; [5],27%
same,TNF,[2]; [7],125 pg/mL
same,TNF % of control,[2]; [7],17%
same,TNF,[2]; [9],74 pg/mL
same,TNF % of control,[2]; [9],10%
same,TNF,[2]; [6],918 pg/mL
same,TNF % of control,[2]; [6],42%
same,TNF,[2]; [8],260 pg/mL
same,TNF % of control,[2]; [8],12%
same,TNF,[2]; [10],167 pg/mL
same,TNF % of control,[2]; [10],8%
same,TNF,"[2]; Medium, test compound 1 μg/ml",1 pg/mL
same,TNF,"[2]; Medium, test compound 10 μg/ml",0 pg/mL
same,TNF,"[2]; Medium, test compound 40 μg/ml",0 pg/mL
same,IL-1β,[3]; [5],284 pg/mL
same,IL-1β % of control,[3]; [5],38%
same,IL-1β,[3]; [7],214 pg/mL
same,IL-1β % of control,[3]; [7],29%
same,IL-1β,[3]; [9],124 pg/mL
same,IL-1β % of control,[3]; [9],17%
same,IL-1β,[3]; [6],1480 pg/mL
same,IL-1β % of control,[3]; [6],58%
same,IL-1β,[3]; [8],624 pg/mL
same,IL-1β % of control,[3]; [8],25%
same,IL-1β,[3]; [10],395 pg/mL
same,IL-1β % of control,[3]; [10],16%
same,IL-1β,"[3]; Medium, test compound 1 μg/ml",0 pg/mL
same,IL-1β,"[3]; Medium, test compound 10 μg/ml",0 pg/mL
same,IL-1β,"[3]; Medium, test compound 40 μg/ml",0 pg/mL
same,IL-10,[4]; [5],72 pg/mL
same,IL-10 % of control,[4]; [5],108%
same,IL-10,[4]; [7],103 pg/mL
same,IL-10 % of control,[4]; [7],155%
same,IL-10,[4]; [9],108 pg/mL
same,IL-10 % of control,[4]; [9],162%
same,IL-10,[4]; [6],126 pg/mL
same,IL-10 % of control,[4]; [6],113%
same,IL-10,[4]; [8],243 pg/mL
same,IL-10 % of control,[4]; [8],218%
same,IL-10,[4]; [10],281 pg/mL
same,IL-10 % of control,[4]; [10],252%
same,IL-10,"[4]; Medium, test compound 1 μg/ml",0 pg/mL
same,IL-10,"[4]; Medium, test compound 10 μg/ml",0 pg/mL
same,IL-10,"[4]; Medium, test compound 40 μg/ml",0 pg/mL
